The record followed here is ChEMBL document CHEMBL1139018, “Acetylenic TACE inhibitors. Part 3: Thiomorpholine sulfonamide hydroxamates” (Bioorg Med Chem Lett, 2006).

Data set [1] has as its target T1, Disintegrin and metalloproteinase domain-containing protein 17 (Homo sapiens, UniProt P78536). Kind of data set: Inhibition of TACE.
In another data set the target is T2, Interstitial collagenase (Homo sapiens, UniProt P03956).
T2 sequence (P03956 whole entry): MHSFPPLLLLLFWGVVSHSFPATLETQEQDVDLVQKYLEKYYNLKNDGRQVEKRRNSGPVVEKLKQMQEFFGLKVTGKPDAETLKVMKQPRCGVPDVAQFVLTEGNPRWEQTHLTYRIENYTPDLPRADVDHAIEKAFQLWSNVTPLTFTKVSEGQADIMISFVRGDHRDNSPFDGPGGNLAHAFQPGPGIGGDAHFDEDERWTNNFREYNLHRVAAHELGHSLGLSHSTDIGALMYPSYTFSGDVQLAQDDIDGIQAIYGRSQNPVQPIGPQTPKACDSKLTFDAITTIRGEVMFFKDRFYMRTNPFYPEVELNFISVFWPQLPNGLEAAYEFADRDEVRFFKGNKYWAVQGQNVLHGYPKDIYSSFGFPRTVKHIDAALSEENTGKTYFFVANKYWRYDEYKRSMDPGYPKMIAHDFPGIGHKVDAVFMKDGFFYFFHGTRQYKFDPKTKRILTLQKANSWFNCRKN
Kind of data set: Inhibition of MMP1.

A further data set addresses Collagenase 3 (Homo sapiens, UniProt P45452). Kind of data set: Inhibition of MMP13.
Data set [2] addresses T1, Disintegrin and metalloproteinase domain-containing protein 17. Nature of the data set: Inhibition of LPS-stimulated TNF production in THP cells at 3 uM. The format is functional, cell-based.
The target is the same in data set [3]. Kind of data set: Inhibition of LPS-stimulated TNF production in THP cells at 1 uM. In kind it is functional, cell-based.
In data set [4] the test system is Mus musculus. Nature of the data set: Inhibition of LPS-stimulated TNFalpha production in mouse at 50 mg/kg, po. In kind it is functional.
Data set [5] can be described thus: Permeability across Caco-2 cell membrane. The format is ADME, cell-based. The settings on record: human. For orientation: Caco-2 monolayers are a common model of the intestinal barrier.
For data set [6], the species on record is Mus musculus. Nature of the data set: Inhibition of LPS-stimulated TNFalpha production in mouse. In kind it is functional.
Data set [7] can be described thus: Bioavailability in mouse at 10 mg/kg. In kind it is ADME, organism-based. The settings on record: in vivo.
Data set [8] can be described thus: Bioavailability in rat at 10 mg/kg. In kind it is ADME, organism-based. The settings on record: in vivo.
The nature of data set [9]: Bioavailability in dog at 10 mg/kg. The settings on record: in vivo. In kind it is ADME, organism-based, Canis lupus familiaris.

T1 sequence (P78536 whole entry, the tested form may be a part): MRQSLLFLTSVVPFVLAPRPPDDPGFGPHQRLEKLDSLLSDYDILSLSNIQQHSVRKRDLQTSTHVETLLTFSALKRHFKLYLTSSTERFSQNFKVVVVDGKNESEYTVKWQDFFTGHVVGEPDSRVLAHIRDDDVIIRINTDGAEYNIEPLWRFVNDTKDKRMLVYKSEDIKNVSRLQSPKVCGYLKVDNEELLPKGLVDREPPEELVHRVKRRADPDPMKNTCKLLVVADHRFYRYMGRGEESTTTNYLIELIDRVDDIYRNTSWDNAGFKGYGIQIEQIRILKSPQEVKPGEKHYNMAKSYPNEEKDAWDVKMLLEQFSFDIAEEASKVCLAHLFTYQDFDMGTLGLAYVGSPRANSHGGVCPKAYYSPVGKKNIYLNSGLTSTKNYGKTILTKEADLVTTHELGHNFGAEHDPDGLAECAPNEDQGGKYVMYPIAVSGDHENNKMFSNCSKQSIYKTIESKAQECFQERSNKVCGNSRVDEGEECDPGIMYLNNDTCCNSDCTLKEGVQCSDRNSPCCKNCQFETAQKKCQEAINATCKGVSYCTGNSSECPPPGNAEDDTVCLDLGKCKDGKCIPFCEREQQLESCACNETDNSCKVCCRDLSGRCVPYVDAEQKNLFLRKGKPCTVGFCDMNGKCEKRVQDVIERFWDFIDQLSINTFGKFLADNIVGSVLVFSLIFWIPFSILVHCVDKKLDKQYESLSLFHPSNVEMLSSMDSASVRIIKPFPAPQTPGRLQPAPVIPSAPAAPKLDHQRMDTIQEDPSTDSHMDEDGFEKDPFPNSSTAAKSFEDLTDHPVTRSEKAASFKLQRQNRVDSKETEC

Take `CC#CCOc1ccc(S(=O)(=O)N2C[C@H](CNS(C)(=O)=O)SC(C)(C)[C@@H]2C(=O)NO)cc1`: the IC50 in data set [1] is 11 nM; against Interstitial collagenase, 19 nM; on Collagenase 3 it was 14 nM. The inhibition is 91% in data set [2] and 81% in [3].
As for `CC#CCOc1ccc(S(=O)(=O)N2C[C@H](CCN(CC)CC)SC(C)(C)[C@@H]2C(=O)NO)cc1`, the figures for the 50% inhibitory concentration (IC50) (in data set [1]; against Interstitial collagenase; at Collagenase 3) were 143 nM, 33 nM and 48 nM, respectively. For the same compound, the inhibition was determined as 87% in data set [2] and 67% in data set [3]. In addition, the inhibition in vivo at 50 mg/kg in the data set with Mus musculus [4] is not below 95%.
For `C#CCCOc1ccc(S(=O)(=O)N2CCSC(C)(C)[C@@H]2C(=O)NO)cc1`, the IC50 in data set [1] worked out at 32 nM; against Interstitial collagenase it was 2 nM; on Collagenase 3, 1 nM. The inhibition in data set [2] is 64%; in data set [3], 36%.
On to `CC1(C)SCCN(S(=O)(=O)c2ccc(OCC#CCN)cc2)[C@H]1C(=O)NO`, for which the results for the half-maximal inhibitory concentration (IC50) on Interstitial collagenase and against Collagenase 3 were 97 nM and 8 nM, respectively. Moreover, the inhibition in [2] was 40%; in data set [3] it was 10%.
At Collagenase 3, `CC(C)(C)OC(=O)NCCCC#CCOc1ccc(S(=O)(=O)N2CCSC(C)(C)[C@@H]2C(=O)NO)cc1` had an IC50 of 2 nM. In addition, the inhibition in [2] is 27%; in [3], 5%.
On to `C/C=C/COc1ccc(S(=O)(=O)N2CCSC(C)(C)[C@@H]2C(=O)NO)cc1`, for which the values for the half-maximal inhibitory concentration (IC50) (in [1]; against Interstitial collagenase; on Collagenase 3) were 35 nM, 7 nM and 2 nM, respectively. Further, the inhibition in data set [2] was 80%; in data set [3] it was 50%.
For `C#CC#CCOc1ccc(S(=O)(=O)N2CCSC(C)(C)[C@@H]2C(=O)NO)cc1`, the IC50 at Interstitial collagenase worked out at 6 nM. The figures for the inhibition in [2] and in data set [3] were 88% and 62%, respectively.
In the case of `CC1(C)SCCN(S(=O)(=O)c2ccc(OCC#CCO)cc2)[C@H]1C(=O)NO`, the IC50 turned out to be 8 nM against Collagenase 3 and 140 nM in [3]. For the same compound, the inhibition worked out at 95% in data set [2] and 89% in data set [3]. Further, the inhibition in vivo at 50 mg/kg in the data set with Mus musculus [4] was not below 95%. In addition, in [5], the Papp is 2.2 ×10⁻⁶ cm/s. Further, the 50% effect level in the data set listed under Mus musculus [6] (ED50) was put at a dose of 5 mg/kg. Moreover, the bioavailability in [7] is 24%; in data set [8], 8%; in data set [9], 36%.
For the compound `CC#CCOc1ccc(S(=O)(=O)N2C[C@H](CC(N)=O)SC(C)(C)[C@@H]2C(=O)NO)cc1`, the inhibition turned out to be 91% in [2] and 76% in data set [3].
The compound `CC1(C)SCCN(S(=O)(=O)c2ccc(OCC#CCCCCN)cc2)[C@H]1C(=O)NO` registered an IC50 against Collagenase 3 of 7 nM. Further, the inhibition in data set [2] worked out at 37%; in data set [3], 13%.
Regarding `CCCCC#CCOc1ccc(S(=O)(=O)N2CCSC(C)(C)[C@@H]2C(=O)NO)cc1`, the IC50 is 23 nM in [1], 29 nM against Interstitial collagenase and 7 nM at Collagenase 3. The inhibition turned out to be 82% in data set [2] and 48% in data set [3].
Compound `CC(C)(C)OC(=O)NCCCCC#CCOc1ccc(S(=O)(=O)N2CCSC(C)(C)[C@@H]2C(=O)NO)cc1` returned an IC50 on Collagenase 3 of 4 nM. The inhibition in [2] was 70%; in data set [3] it was 40%.
As for `CC1(C)SCCN(S(=O)(=O)c2ccc(OCC#CCCCO)cc2)[C@H]1C(=O)NO`, the IC50 came to 40 nM in data set [1], 159 nM against Interstitial collagenase and 86 nM against Collagenase 3. Further, the inhibition is 51% in data set [2] and 19% in data set [3].
For `CCCCOc1ccc(S(=O)(=O)N2CCSC(C)(C)[C@@H]2C(=O)NO)cc1` the same measures were 42 nM, 7 nM, 9 nM, 38% and 11%.
The corresponding values for `C#CCCCOc1ccc(S(=O)(=O)N2CCSC(C)(C)[C@@H]2C(=O)NO)cc1` are 40 nM, 11 nM, 8 nM, 38% and 16%.
As to `CC1(C)SCCN(S(=O)(=O)c2ccc(OCC#CCCN)cc2)[C@H]1C(=O)NO`, the results for the IC50 (in [1]; against Interstitial collagenase; against Collagenase 3) were 138 nM, 1050 nM and 27 nM, respectively. Further, the inhibition in data set [2] is 4%; in data set [3], 0%.
For `CC1(C)SCCN(S(=O)(=O)c2ccc(OCC#CCCO)cc2)[C@H]1C(=O)NO` the same measures were 62 nM, 35 nM, 14 nM, 57% and 25%.
Regarding `CC#CCOc1ccc(S(=O)(=O)N2C[C@H](CN)SC(C)(C)[C@@H]2C(=O)NO)cc1`, the inhibition in data set [2] amounted to 94%; in data set [3], 78%. Also, in the data set with Mus musculus [4], the inhibition in vivo at 50 mg/kg is not below 95%.
Consider `CC1(C)SCCN(S(=O)(=O)c2ccc(OCC#CCCCCO)cc2)[C@H]1C(=O)NO`, for which the inhibition was found to be 77% in data set [2] and 52% in data set [3].
`CC#CCOc1ccc(S(=O)(=O)N2C[C@H](CC(=O)O)SC(C)(C)[C@@H]2C(=O)NO)cc1` registered a half-maximal inhibitory concentration (IC50) on Collagenase 3 of 7 nM. Besides, the values for the inhibition in data set [2] and in data set [3] were 89% and 73%, respectively.
As for `CC1(C)SCCN(S(=O)(=O)c2ccc(OCC#CCCCN)cc2)[C@H]1C(=O)NO`, the half-inhibitory concentration (IC50) at Collagenase 3 turned out to be 9 nM. Further, the inhibition in data set [2] worked out at 22%; in data set [3] it was 0%.
As to `CC#CCOc1ccc(S(=O)(=O)N2CCSC(C)(C)[C@@H]2C(=O)NO)cc1`, the inhibition was found to be 94% in data set [2] and 87% in data set [3]. In addition, the bioavailability was 71% in [7], 5% in [8] and 0% in data set [9].
In the case of `CC(C)(C)OC(=O)NCC#CCOc1ccc(S(=O)(=O)N2CCSC(C)(C)[C@@H]2C(=O)NO)cc1`, the concentration for half-maximal inhibition (IC50) in data set [1] was determined as 74 nM; against Interstitial collagenase, 26 nM; on Collagenase 3 it was 4 nM. Further, the values for the inhibition in data set [2] and in [3] were 79% and 53%, respectively.
The corresponding values for `CC(C)(C)OC(=O)NCCC#CCOc1ccc(S(=O)(=O)N2CCSC(C)(C)[C@@H]2C(=O)NO)cc1` are 112 nM, 300 nM, 7 nM, 37% and 14%.
In the case of `C#CCOc1ccc(S(=O)(=O)N2CCSC(C)(C)[C@@H]2C(=O)NO)cc1`, the IC50 against Interstitial collagenase and against Collagenase 3 was 1 nM throughout. The figures for the inhibition in data set [2] and in data set [3] were 91% and 76%, respectively.
Turning to `CC#CCOc1ccc(S(=O)(=O)N2C[C@H](CCO)SC(C)(C)[C@@H]2C(=O)NO)cc1`, the IC50 was found to be 15 nM in data set [1], 21 nM on Interstitial collagenase and 23 nM at Collagenase 3. The inhibition in data set [2] is 90%; in data set [3] it was 74%. Also, the inhibition in vivo at 50 mg/kg with Mus musculus [4] was not below 95%.

The IC50 is the point on the concentration scale where inhibition reaches its midpoint. Usually inhibition stands for the change of the read-out against control, counted positive when it falls. High values mean a strong effect, low ones a weak effect. The term inhibition in vivo denotes the percentage by which the read-out fell short of the control. For orientation: Papp means the rate of passage across a membrane or cell layer, normalised by area and donor concentration. A low value points to slow passage. For orientation: ED50 means the dose at which the effect has come halfway, by size or by number of responders. Low values mean an effect at a small dose, high ones a need for a large dose. The bioavailability is the share of a dose that reaches the circulation, judged against a reference dose that is usually intravenous. The low end stands for little systemic uptake, the high end for much systemic uptake.
